Measured values: patent US20070167387A1, “Novel artificial nucleic acids of n-o bond crosslinkage type” (TAKESHI IMANISHI, priority 2003, published 2007)

Assays:
Assay type in all cases: binding
[1] = test system: dsDNA 5′-d(GCTGCT AAAAAGAAAGAGAGATCGTCG)-3′ / 3′-d(CGACGATTTTTCTTTCTCTCTAGCAGC)-5′; test: Tm measurement, triplex-forming capacity with dsDNA, with MgCl2 (Table 5-2); details: 140 mM KCl, 10 mM MgCl2, 7 mM Na2HPO4 buffer (pH 7.0), each strand 1.5 μM
Protocol: (§1) Sample solutions (500 μL) with end concentrations of NaCl 100 mM, sodium phosphate buffer (pH 7.2) 10 mM, antisense strand 4 μM, and sense strand 4 μM were bathed in boiling water, and cooled down to room temperature over the course of 10 hours. A stream of nitrogen was flowed through a cell chamber of a spectrophotometer (Beckman, DU-650) to prevent dew formation, and the sample solutions were gradually cooled down to 5° C. Further, the sample solutions were maintained at 10° C. for 20 minutes, and then their measurements were started. The temperature was raised up to 90° C. at a rate of 0.5° C./min, and the ultraviolet absorption at 260 nm was measured.
(§2) In connection with the oligonucleotide analogues (6) to (11) and (18) to (21) synthesized in the Examples, the triplex-forming capacity with the target double-stranded DNA's indicated below was investigated by the same method as in Experimental Example 1. The salt concentrations and pH during measurement complied with the conditions described below the respective tables.

[2] = test system: dsDNA 5′-d(GCT AAAAAGAAAGAGAGATCG)-3′ / 3′-d(CGATTTTTCTTTCTCTCTAGC)-5′; test: Tm measurement, triplex-forming capacity with dsDNA (Table 5-1); details: 140 mM KCl, 7 mM Na2HPO4 buffer (pH 7.0), each strand 1.5 μM
Protocol: as §1, §2

[3] = test system: RNA strand (5′-AGCAAAAAACGC-3′); test: Melting point (Tm) measurement, duplex-forming capacity with RNA strand; details: 100 mM NaCl, 10 mM Na2HPO4 buffer (pH7.2), [strand] = 4 μM, average of 3 or more experiments
Protocol: (§3) The oligonucleotide analogues (1) to (5) and (13) to (17) synthesized in the Examples (i.e., antisense strands), and a sense strand of a natural DNA or RNA oligonucleotide were annealed. The melting points (Tm) of the annealing products were measured to investigate the duplex-forming capacity of the antisense strands.
as §1

[4] = test system: DNA strand (5′-AGCAAAAAACGC-3′); test: Melting point (Tm) measurement, duplex-forming capacity with DNA strand; details: 100 mM NaCl, 10 mM Na2HPO4 buffer (pH7.2), [strand] = 4 μM, average of 3 or more experiments
Protocol: as §3, §1

[5] = test system: dsDNA 5′-d([…])-3′ / 3′-d(CGATTTTTCTNTCTCTCTAGC)-5′; test: Sequence selective triplex-formation, match and mismatch dsDNA (Table 5-3); details: for Tm: 140 mM KCl, 7 mM sodium phosphate buffer (pH 7.0), each strand 1.5 μM
Protocol: as §1, §2

Substance | Tm [1] [°C] | ΔTm/modification [1] | Tm [2] [°C] | ΔTm/modification [2] | also measured
5′-XTXTX^mCXTX^mCX^mCX^mCT-3′ [Oligonucleotide analogue (9)] | > 80 | > +5 °C | 59 | +3.7 °C | 
5′-GCGTTTTTTGCT-3′ (unmodified DNA) [natural antisense strand, reference compound] |  |  |  |  | Tm [3]: 45 °C; Tm [4]: 50 °C
5′-TTTTY^mCTYT^mCY^mCT^mCT-3′ [Oligonucleotide analogue (19)] | 73 | +10.0 °C | 60 | +9.0 °C | 
5′-TTTTT^mCTTT^mCT^mCT^mCT-3′ (TTTTTCTTTCTCTCT; all C 5-methyl, sugars by position and backbone not given here) [unmodified triplex-forming oligonucleotide, Z = natural T, reference compound] | 43 |  | 33 |  | Tm ([5]; M·N = A·T (match)): 43 °C; ΔTm = Tm(mismatch) − Tm(match) ([5]; M·N = C·G): −18 °C; Tm ([5]; M·N = C·G (mismatch)): 25 °C; ΔTm = Tm(mismatch) − Tm(match) ([5]; M·N = G·C): −22 °C; Tm ([5]; M·N = G·C (mismatch)): 21 °C; ΔTm = Tm(mismatch) − Tm(match) ([5]; M·N = T·A): −25 °C; Tm ([5]; M·N = T·A (mismatch)): 18 °C
5′-TTTTT^mCYYY^mCT^mCT^mCT-3′ [Oligonucleotide analogue (20)] | 71 | +9.3 °C | 59 | +8.7 °C | 
5′-TXTTX^mCTXT^mCX^mCTX*T-3′ [Oligonucleotide analogue (10)] | 63 | +4.0 °C | 50 | +3.4 °C | 
5′-TTTTX^mCTXT^mCX^mCT^mCT-3′ [Oligonucleotide analogue (7)] | 61 | +6.0 °C | 47 | +4.6 °C | 
5′-YTYTY^mCYTY^mCY^mCY^mCT-3′ [Oligonucleotide analogue (21)] | > 80 | > +5 °C | 78 | +6.4 °C | 
5′-XTTTX^mCTTX^mCT^mCX^mCT-3′ [Oligonucleotide analogue (11)] | 59 | +4.0 °C | 45 | +3.0 °C | 
